Results reported in patent US5407918A, “16-membered macrolide derivatives and process for producing the same” (Meiji Seika Kaisha, Ltd., priority 1992, dated 1995).
In brackets after ≈: the same amount, converted by molar mass.

Columns and labels:
Type in all cases: cell-based
Gram-positive bacteria = assay: antimicrobial activity in vitro (summary in words); details: from Tables 2 and 3
Description: (§1) Antimicrobial activities of the compounds of the present invention were determined by measuring minimum inhibitory concentration (MIC). Minimum inhibitory concentration was determined by the agar plate dilution method in the following manner.
(§2) Test strains were subjected to seed culture using Sensitivity test broth (STB, Nissui Pharmaceutical) except that the strains belonging to the genus Streptococcus, Branhamella and Haemophilus were cultured on blood agar plate. A 5 μl portion of cell suspension of the test strains having about 10^6 CFU/ml was inoculated into Sensitivity disk agar (SDA, Nissui Pharmaceutical) supplemented with 5% horse blood and incubated at 37° C. for 20 hours. Then, MIC was measured. For comparison, MDM and leucomycin A7 (LM-A7) was also tested.

test strains = assay: antimicrobial activity in vitro, comparison in words; details: for antimicrobial activity in vitro compared with MOM: data are not shown; for antimicrobial activity compared with LM-A7: except on Haemophilus influenzae, Tables 2 and 3
Description: as §1, §2

S. Pyogenes Cook = assay: MIC, agar plate dilution method; details: Streptococcus pyogenes, 37° C., 20 hours, read-out: Antimicrobial activity (MIC)
Description: as §1, §2

S. aureus M126 = assay: MIC, agar plate dilution method; details: Staphylococcus aureus; S. aureus M126; 37° C., 20 hours; read-out: Antimicrobial activity (MIC)
Description: as §1, §2

S. aureus 209P JC-1 = assay: MIC, agar plate dilution method; details: Staphylococcus aureus; S. aureus 209P JC-1; 37° C., 20 hours; read-out: Antimicrobial activity (MIC)
Description: as §1, §2

B. catarrhalis W-0500 = assay: MIC, agar plate dilution method; details: Moraxella catarrhalis, W0500, 37° C., 20 hours, read-out: Antimicrobial activity (MIC)
Description: as §1, §2

E. coli NIHJ JC-2 = assay: MIC, agar plate dilution method; details: Escherichia coli, NIHJJC2; E. coli NIHJ JC-2; 37° C., 20 hours; read-out: Antimicrobial activity (MIC)
Description: as §1, §2

S. epidermidis ATCC14990 = assay: MIC, agar plate dilution method; details: Staphylococcus epidermidis, 37° C., 20 hours, read-out: Antimicrobial activity (MIC)
Description: as §1, §2

S. aureus M133 = assay: MIC, agar plate dilution method; details: Staphylococcus aureus, 37° C., 20 hours, read-out: Antimicrobial activity (MIC)
Description: as §1, §2

S. Pneumoniae Type 1 = assay: MIC, agar plate dilution method; details: Streptococcus pneumoniae; S. Pneumoniae Type 1; 37° C., 20 hours; read-out: Antimicrobial activity (MIC)
Description: as §1, §2

S. aureus MS15009/pMS99 = assay: MIC, agar plate dilution method; details: Staphylococcus aureus, MS15009/PMS99, 20 h, read-out: Antimicrobial activity (MIC)
Description: as §1, §2

H. influenzae 9334 = assay: MIC, agar plate dilution method; details: Haemophilus influenzae; H. influenzae 9334; 37° C., 20 hours; read-out: Antimicrobial activity (MIC)
Description: as §1, §2

K. pneumoniae PC1602 = assay: MIC, agar plate dilution method; details: Klebsiella pneumoniae, 37° C., 20 hours, read-out: Antimicrobial activity (MIC)
Description: as §1, §2

M. luteus ATCC9341 = assay: MIC, agar plate dilution method; details: Micrococcus luteus; M. luteus ATCC9341; 37° C., 20 hours; read-out: Antimicrobial activity (MIC)
Description: as §1, §2

S. pneumoniae IP692 = assay: MIC, agar plate dilution method; details: Streptococcus pneumoniae; S. pneumoniae IP692; 37° C., 20 hours; read-out: Antimicrobial activity (MIC)
Description: as §1, §2

B. catarrhalis W-0506 = assay: MIC, agar plate dilution method; details: Moraxella catarrhalis, W0506, 37° C., 20 hours, read-out: Antimicrobial activity (MIC)
Description: as §1, §2

S. aureus MS15026 = assay: MIC, agar plate dilution method; details: Staphylococcus aureus, 37° C., 20 hours, read-out: Antimicrobial activity (MIC)
Description: as §1, §2

S. aureus MS15027 = assay: MIC, agar plate dilution method; details: Staphylococcus aureus, 37° C., 20 hours, read-out: Antimicrobial activity (MIC)
Description: as §1, §2

S. aureus MS15009/pMS98 = assay: MIC, agar plate dilution method; details: Staphylococcus aureus, MS15009/PMS98, 20 h, read-out: Antimicrobial activity (MIC)
Description: as §1, §2

E. faecalis W-73 = assay: MIC, agar plate dilution method; details: Enterococcus faecalis, W73; E. faecalis W-73; 37° C., 20 hours; read-out: Antimicrobial activity (MIC)
Description: as §1, §2

H. influenzae Type b = assay: MIC, agar plate dilution method; details: Haemophilus influenzae; H. influenzae Type b; 37° C., 20 hours; read-out: Antimicrobial activity (MIC)
Description: as §1, §2

Compound	antimicrobial activity on Gram-positive bacteria (Gram-positive bacteria)	antimicrobial activity in vitro compared with MOM (test strains)	antimicrobial activity compared with LM-A7 (test strains)	MIC (S. Pyogenes Cook)	MIC (S. aureus M126)	MIC (S. aureus 209P JC-1)	MIC (B. catarrhalis W-0500)	MIC (E. coli NIHJ JC-2)	MIC (S. epidermidis ATCC14990)	MIC (S. aureus M133)	MIC (S. Pneumoniae Type 1)	MIC (S. aureus MS15009/pMS99)	MIC (H. influenzae 9334)	MIC (K. pneumoniae PC1602)	MIC (M. luteus ATCC9341)	MIC (S. pneumoniae IP692)	MIC (B. catarrhalis W-0506)	MIC (S. aureus MS15026)	MIC (S. aureus MS15027)	MIC (S. aureus MS15009/pMS98)	further results
CCCCCO[C@H]1[C@H](C)O[C@@H](O[C@H]2[C@H](N(C)C)[C@@H](O)[C@H](O[C@H]3[C@@H](CC=O)C[C@@H](C)[C@@H](O)/C=C/C=C/C[C@@H](C)OC(=O)C[C@@H](O)[C@@H]3OC)O[C@@H]2C)C[C@@]1(C)OC [(11)]	strong antimicrobial activity	clearly much superior to MOM	comparable or superior	0.1 µg/mL (≈ 0.127 µM)	> 100 µg/mL	0.1 µg/mL (≈ 0.127 µM)	0.39 µg/mL (≈ 0.496 µM)	> 100 µg/mL	0.39 µg/mL (≈ 0.496 µM)	0.39 µg/mL (≈ 0.496 µM)	0.2 µg/mL (≈ 0.254 µM)	> 100 µg/mL	3.13 µg/mL (≈ 3.98 µM)	> 100 µg/mL	0.05 µg/mL (≈ 0.0636 µM)	0.05 µg/mL (≈ 0.0636 µM)	0.78 µg/mL (≈ 0.992 µM)	> 100 µg/mL	0.39 µg/mL (≈ 0.496 µM)	0.39 µg/mL (≈ 0.496 µM)	MIC (E. faecalis W-73): 0.39 µg/mL (≈ 0.496 µM); MIC (H. influenzae Type b): 12.5 µg/mL (≈ 15.9 µM)
CO[C@@H]1[C@@H](O[C@@H]2O[C@H](C)[C@@H](O[C@H]3C[C@@](C)(OC)[C@@H](OCc4ccccc4)[C@H](C)O3)[C@H](N(C)C)[C@H]2O)[C@@H](CC=O)C[C@@H](C)[C@@H](O)/C=C/C=C/C[C@@H](C)OC(=O)C[C@H]1O [(16)]	strong antimicrobial activity	clearly much superior to MOM	comparable or superior	0.1 µg/mL (≈ 0.124 µM)	> 100 µg/mL	0.1 µg/mL (≈ 0.124 µM)	0.78 µg/mL (≈ 0.968 µM)	> 100 µg/mL	0.2 µg/mL (≈ 0.248 µM)	0.39 µg/mL (≈ 0.484 µM)	0.1 µg/mL (≈ 0.124 µM)	> 100 µg/mL	3.13 µg/mL (≈ 3.88 µM)	> 100 µg/mL	0.05 µg/mL (≈ 0.062 µM)	0.1 µg/mL (≈ 0.124 µM)	0.78 µg/mL (≈ 0.968 µM)	> 100 µg/mL	0.2 µg/mL (≈ 0.248 µM)	0.2 µg/mL (≈ 0.248 µM)	MIC (E. faecalis W-73): 0.39 µg/mL (≈ 0.484 µM); MIC (H. influenzae Type b): 6.25 µg/mL (≈ 7.75 µM)
